Patent US12060347B2 (BRISTOL-MYERS SQUIBB COMPANY, priority 2016, dated 2024)

Molecular target: T1, human PAR4 (Homo sapiens, UniProt Q96RI0)
T1 construct: expressed in transfected cells; host or cells: HEK293 PAR4 Clone 1.2A (BMS Arctic ID 383940)
T1 sequence (Q96RI0 18-385): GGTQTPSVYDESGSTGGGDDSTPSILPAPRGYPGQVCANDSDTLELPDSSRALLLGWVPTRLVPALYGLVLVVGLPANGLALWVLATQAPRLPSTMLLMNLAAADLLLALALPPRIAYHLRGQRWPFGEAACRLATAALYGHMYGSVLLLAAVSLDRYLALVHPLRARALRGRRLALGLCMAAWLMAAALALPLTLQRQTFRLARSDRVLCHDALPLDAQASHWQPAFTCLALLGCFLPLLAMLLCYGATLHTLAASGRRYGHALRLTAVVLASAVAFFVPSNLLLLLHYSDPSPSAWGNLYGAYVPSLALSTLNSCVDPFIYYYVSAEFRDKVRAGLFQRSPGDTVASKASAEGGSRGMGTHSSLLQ
Experiment: PAR4 FLIPR assay: antagonism of agonist-peptide-induced calcium mobilization in PAR4-expressing HEK293 cells
Assay type: cell-based
Details: H-Ala-Phe(4-F)-[…]NH2-induced intracellular calcium mobilization, 11-point curves

Compound | IC50 [nM]
COc1cnc2c(-c3nc4c(C)cc(OCCNS(=O)(=O)c5ccc(F)cc5)cc4s3)cc(CN)cc2n1 [Example 238, N-(2-((2-(7-(aminomethyl)-2-methoxyquinoxalin-5-yl)-4-methylbenzo[d]thiazol-6-yl)oxy)ethyl)-4-fluorobenzenesulfonamide] | 1300
COCc1cnc2c(-c3nc4c(C)c(C)c(OCC(C)(C)O)cc4s3)cc(C)cc2n1 [Example 319, 1-((2-(2-(methoxymethyl)-7-methylquinoxalin-5-yl)-4,5-dimethylbenzo[d]thiazol-6-yl)oxy)-2-methylpropan-2-ol] | 7.3
COc1cc(C(F)C(C)(C)C)c2nc(-c3cc(C)cc4nc(OC)cnc34)sc2c1 (stereo not drawn) [Example 634, 4-(1-fluoro-2,2-dimethylpropyl)-6-methoxy-2-(2-methoxy-7-methylquinoxalin-5-yl)benzo[d]thiazole] | 44
COCc1cnc2c(-c3nc4cc(CO)c(OC)cc4s3)cc(C)cc2n1 [Example 312, (6-methoxy-2-(2-(methoxymethyl)-7-methylquinoxalin-5-yl)benzo[d]thiazol-5-yl) methanol] | 6.7
COc1ccc(NC(=O)O[C@H](C)[C@H](C)Oc2cc3sc(-c4cc(Cl)cc5nc(OC)cnc45)nc3cc2F)cn1 [Example 821, (2R,3S)-3-((2-(7-chloro-2-methoxyquinoxalin-5-yl)-5-fluorobenzo[d]thiazol-6-yl)oxy)butan-2-yl (6-methoxypyridin-3-yl)carbamate] | 4.6
COc1cnc2c(-c3nc4c(s3)CC(OC)CC4)cc(C)cc2n1 (stereo not drawn) [Example 140, 6-methoxy-2-(2-methoxy-7-methylquinoxalin-5-yl)-4,5,6,7-tetrahydrobenzo[d]thiazole] | 21
COc1cnc2c(-c3nc4cc(F)c(O[C@@H](C)[C@@H](C)OC(=O)Nc5cnc(N(C)C)nc5)cc4s3)cc(C)cc2n1 [Example 598, (2R,3S)-3-((5-fluoro-2-(2-methoxy-7-methylquinoxalin-5-yl)benzo[d]thiazol-6-yl)oxy)butan-2-yl (2-(dimethylamino)pyrimidin-5-yl)carbamate] | 3.7
COc1cnc2c(-c3nc4cc(F)c(OC)cc4s3)cc(C#N)cc2n1 [Example 221, 8-(5-fluoro-6-methoxybenzo[d]thiazol-2-yl)-3-methoxyquinoxaline-6-carbonitrile] | 21
COc1cnc2c(-c3nc4c(C)cc(OC)nc4s3)cc(C)cc2n1 [Example 179, 5-methoxy-2-(2-methoxy-7-methylquinoxalin-5-yl)-7-methylthiazolo[5,4-b]pyridine] | 18
COCc1cnc2c(-c3nc4c(OC)c(F)c(Cl)cc4s3)cc(C)cc2n1 [Example 313, 6-chloro-5-fluoro-4-methoxy-2-(2-(methoxymethyl)-7-methylquinoxalin-5-yl) benzo[d]thiazole] | 2.9
COc1cnc2c(-c3nc4c(Cl)cc(OCCNS(=O)(=O)c5ccc(F)cc5)cc4s3)cc(C)cc2n1 [Example 28, N-(2-((4-chloro-2-(2-methoxy-7-methylquinoxalin-5-yl)benzo[d]thiazol-6-yl)oxy)ethyl)-4-fluorobenzenesulfonamide] | 3
Cc1cc(-c2nc3c(C)cc(OCCNS(=O)(=O)c4ccc(F)cc4)cc3s2)c2ncc(C(C)F)nc2c1 (stereo not drawn) [Example 108, 4-fluoro N-(2-(2-(2-(1 fluoroethyl)-7-methylquinoxalin-5-yl)-4-methylbenzo[d]thiazol-6-yloxy)ethyl)benzenesulfonamide] | 1100
COc1cnc2c(-c3nc4c(C)c(F)c(OC)cc4s3)cc(C(O)c3ccccc3)cc2n1 (stereo not drawn) [Example 245, (8-(5-fluoro-6-methoxy-4-methylbenzo[d]thiazol-2-yl)-3-methoxyquinoxalin-6-yl) (phenyl)methanol] | 92
COc1cnc2c(-c3nc4cc(F)c(O[C@@H](C)[C@@H](C)OC(=O)Nc5cnc(C(=O)N6CCOCC6)nc5)cc4s3)cc(C)cc2n1 [Example 437, (2R,3S)-3-((5-fluoro-2-(2-methoxy-7-methylquinoxalin-5-yl)benzo[d]thiazol-6-yl)oxy)butan-2-yl (2-(morpholine-4-carbonyl)pyrimidin-5-yl)carbamate] | 4.9
COc1cc(C(O)C2(C(F)(F)F)CC2)c2nc(-c3cc(C)cc4nc(OC)cnc34)sc2c1 (stereo not drawn) [Example 667, (6-methoxy-2-(2-methoxy-7-methylquinoxalin-5-yl)benzo[d]thiazol-4-yl)(1-(trifluoromethyl)cyclopropyl)methanol] | 5.6
COc1cnc2c(-c3nc4cc(F)c(O[C@@H](C)[C@@H](C)OC(=O)Nc5ccnc(CC(C)(C)O)c5)cc4s3)cc(C)cc2n1 [Example 561, (2R,3S)-3-((5-fluoro-2-(2-methoxy-7-methylquinoxalin-5-yl)benzo[d]thiazol-6-yl)oxy)butan-2-yl (2-(2-hydroxy-2-methylpropyl)pyridin-4-yl)carbamate] | 53

The next molecules have a lower IC50 than those just listed; values first:

IC50 [nM] | Compound
2.2 | COCc1cnc2c(-c3nc4c(Cl)cc(F)cc4s3)cc(C)cc2n1 [Example 266, 4-chloro-6-fluoro-2-(2-(methoxymethyl)-7-methylquinoxalin-5-yl)benzo[d]thiazole]
1.4 | COCc1cnc2c(-c3nc4c(C(O)C(C)(C)C)cc(OC)cc4s3)cc(C)cc2n1 (stereo not drawn) [Example 628, 1-(6-methoxy-2-(2-(methoxymethyl)-7-methylquinoxalin-5-yl)benzo[d]thiazol-4-yl)-2,2-dimethylpropan-1-ol]
1.2 | COc1cnc2c(-c3nc4c(C)c(F)c(OC)cc4s3)cc(CO)cc2n1 [Example 243, (8-(5-fluoro-6-methoxy-4-methylbenzo[d]thiazol-2-yl)-3-methoxyquinoxalin-6-yl) methanol]
1.8 | COc1cnc2c(-c3nc4cc(F)c(O[C@@H](C)[C@@H](C)OC(=O)Nc5cncc(C#N)c5)cc4s3)cc(C)cc2n1 [Example 421, (2R,3S)-3-((5-fluoro-2-(2-methoxy-7-methylquinoxalin-5-yl)benzo[d]thiazol-6-yl)oxy)butan-2-yl (5-cyanopyridin-3-yl)carbamate]
0.7 | COc1cnc2c(-c3nc4cc(F)c(O[C@@H](C)[C@@H](C)OC(=O)Nc5cncc(O)c5)cc4s3)cc(C)cc2n1 [Example 533, (2R,3S)-3-((5-fluoro-2-(2-methoxy-7-methylquinoxalin-5-yl)benzo[d]thiazol-6-yl)oxy)butan-2-yl (5-hydroxypyridin-3-yl)carbamate]
1.9 | COc1cnc2c(-c3nc4cc(F)c(O[C@@H](C)[C@@H](C)OC(=O)Nc5ccc(C(=O)N(C)C)nc5)cc4s3)cc(C)cc2n1 [Example 438, (2R,3S)-3-((5-fluoro-2-(2-methoxy-7-methylquinoxalin-5-yl)benzo[d]thiazol-6-yl)oxy)butan-2-yl (6-(dimethylcarbamoyl)pyridin-3-yl)carbamate]
2 | COc1cnc2c(-c3nc4c(C)cc(OCCNS(=O)(=O)c5ccc(C)cc5)cc4s3)cc(C)cc2n1 [Example 87, N-(2-(2-(2-methoxy-7-methylquinoxalin-5-yl)-4-methylbenzo[d]thiazol-6-yloxy)ethyl)-4-methylbenzenesulfonamide]
0.6 | COc1cnc2c(-c3nc4cc(F)c(O[C@@H](C)[C@@H](C)OC(=O)Nc5cnc(OCC(C)(C)O)nc5)cc4s3)cc(C)cc2n1 [Example 575, (2R,3S)-3-((5-fluoro-2-(2-methoxy-7-methylquinoxalin-5-yl)benzo[d]thiazol-6-yl)oxy)butan-2-yl (2-(2-hydroxy-2-methylpropoxy)pyrimidin-5-yl)carbamate]
